Assay results: patent US20150018418A1, “COMPOSITIONS AND METHODS FOR PROLONGING PREGNANCY” (priority 2013, published 2015)

How the values were obtained:
[1] = Serum half-life and clearance of gabapentin in humans; format: in vivo; conditions: expected from the serum half-life
Source text: The patient was discharged.

[2] = test system: preterm labor / premature birth; conditions: cited from earlier work
[3] = test system: pregnant human female in PTL (uterine contractions); conditions: Example 1
Experimental: A pregnant person, at 29.5 weeks gestation, presented to the hospital in PTL during their first pregnancy. […] The patient's parent experienced PTL during one of their pregnancies, leading to premature birth of the patient at 30 weeks gestation. The patient's sibling also had experienced PTL with one of their pregnancies resulting in premature birth at 36 weeks gestation.
The patient was diagnosed with PTL and started on nifedipine 20 mg by mouth every 6 hours for tocolysis and magnesium sulfate 6 g as an intravenous infusion over 30 minutes followed by 2 g per hour for the next 12 hours for fetal neuroprotection. […] A course of steroids were also given for fetal lung maturation.
The patient then enrolled in a study conducted in advancement of the present disclosure and began therapy with gabapentin 300 mg, 3×/day (900 mg/day total). […] The following day the patient was discharged home only on gabapentin 300 mg, 3×/day and their previous outpatient dose of atenolol at 50 mg a day. […] They were instructed to increased their gabapentin dose to 600 mg, 3×/day.
Gabapentin was not administered while the patient was in the hospital. […] The patient was discharged.
Such contractions are the hallmark of preterm labor, which is known to result in premature birth in 60% of cases.

[4] = test system: pregnant human in PTL (uterine contractions, uterine pressure); assay: Example 2: gabapentin maintenance therapy in a patient with preterm labor (case report); format: in vivo
Experimental: The cervix was dilated at 3.5-4 cm and regular uterine contractions were occurring at 11/hour. […] The uterine contractions slowly diminished and were completely resolved 14 hours after tocolysis was initiated.
The cervix was still 3.5-4 cm dilated at the time of enrollment. By the evening of the next day, the subject began feeling “uncomfortable” with a “pressure” feeling in their uterus. They were instructed the next day to increase their bedtime gabapentin dose to 600 mg and to continue 300 mg in the morning and in the afternoon. […] Two days later the subject reported feeling some recurrent uterine pressure especially noticeable for the hour before each gabapentin dose was taken. Gabapentin was increased to 600 mg, 3×/day and by the following day all of the pressure symptoms had resolved. The subject remained asymptomatic.
They continued on gabapentin 600 mg, 3×/day and remained asymptomatic. Three days later the subject noticed that their “water broke”. They were admitted to the hospital and confirmed to have preterm premature rupture of membranes (PPROM) with cervix still dilated to 4 cm. Gabapentin was continued at 600 mg, 3×/day. The subject remained asymptomatic throughout the next day; however, on the morning of the following day the subject began having regular uterine contractions about every 3-5 minutes and their cervix had now dilated to 7cm.
This discovery of gabapentin maintenance therapy resolving recurrent uterine contractions and pressure symptoms leading to a prolongation of pregnancy and preserving fetal survival is accordingly highly valuable to the public. Its value can be recognized at least in part because uterine contractions are an essential component of PTL, which precedes 40-50% of premature births (<37 weeks gestation) and as described above, premature birth occurs in 11.5% of all live births in the US, is the number one cause of neonatal mortality, and is responsible for half of the long-term neurological impairments in children. […]

[5] = nifedipine 20 mg by mouth every 6 hours, with i.v. magnesium sulfate for fetal neuroprotection

**Q.** Which results are given for `NCC1(CC(=O)O)CCCCC1` [gabapentin, (1-aminomethyl)cyclohexaneacetic acid]?
**A.** time to be fully cleared after discontinuation [1]: about 30 hours; use during pregnancy and premature birth ([2]; Fujii H, et al. Neurology 2013): associated with an increase in premature birth; recurrent uterine cramping and uterine contraction feelings ([3]; dose increased from 300 mg to 600 mg 3x/day, after the second 600 mg dose): fully resolved; side effects after the first dose ([3]; gabapentin 300 mg 3x/day, resolved that same day): mild dizziness; side effects from the higher dose ([3]; gabapentin 600 mg 3x/day): did not experience any side effects; time remained stable without any uterine cramping ([3]; gabapentin 600 mg 3x/day): 16 days; outcome after discontinuation of maintenance therapy ([3]; gabapentin discontinued for 8 days): associated with the IUFD; uncomfortable pressure feeling in uterus ([4]; bedtime dose increased to 600 mg, 300 mg morning and afternoon, following morning): fully resolved; recurrent uterine pressure symptoms ([4]; gabapentin increased to 600 mg 3x/day, by the following day): resolved

**Q.** Which “time to resolution of all uterine contractions” value ([3]; recurrent contractions, intravenous magnesium sulfate infusion 2 g/hour, gabapentin not administered) does the source give for `O=S(=O)([O-])[O-].[Mg+2]` [magnesium sulfate] here?
**A.** ≤ 5 h

**Q.** What does the source list for `COC(=O)C1=C(C)NC(C)=C(C(=O)OC)C1c1ccccc1[N+](=O)[O-]` [nifedipine]?
**A.** time to complete resolution of uterine contractions after tocolysis was initiated [3, 5]: 12 h; time to complete resolution of uterine contractions after tocolysis was initiated [4, 5]: 14 h

**Q.** For `CC(C)(C)NCC(O)c1cc(O)cc(O)c1` (stereo not shown) [terbutaline], which “maintenance tocolysis for prolonging pregnancy” value ([2]; patients with recent or resolved PTL, versus placebo) is on record?
**A.** no more effective than maintenance placebo therapy
